The record followed here is patent US20260001928A1 (CORTERIA PHARMACEUTICALS, priority 2022, published 2026).

*1 amine or outer side, *2 acyl side, *3 side chain or, on linkers, in order; H or OH if unused. Where a SMILES comes first, the peptide text is derived from it. Side-chain parts run from the residue outwards. [ ]: non-standard residue; d: D form. The star is where a group is joined. C16 diacid = O=C(O)CCCCCCCCCCCCCCC(=O)*; γGlu = O=C(O)[C@H](CCC(=O)[*:2])N[*:1]; αMeL = CC(C)C[C@](C)(N)C(=O)O; Aib = CC(C)(N)C(=O)O

Data set [1] is described as follows: Chemical stability in buffer (pH 7.4 / pH 4.5), % purity loss. It is filed as physicochemical. The following applies: 40° C. vs 5° C., 14 or 28 days; for Buffer stability pH 4.5 % purity loss: 100 mM acetate buffer pH 4.5; for Buffer stability pH 7.4 % purity loss: 100 mM phosphate buffer pH 7.4. How it is done: Solubility and chemical stability were studied in 100 mM phosphate buffer (pH 7.4) and 100 mM acetate buffer (pH 4.5). Test compound powders were dissolved in both buffers at a target concentration of 10 mg/mL and incubated for 1 hour at room temperature. After centrifugation at 2500 rcf for 15 minutes, 10 μL of supernatant was diluted with 190 μL of the incubation buffer and analyzed by LC-UV (Acquity UPLC-DAD, Waters). Solubility was calculated by comparing the peak area of the test compound in the buffer sample with the peak area of the same compound dissolved at 0.5 mg/mL in water:acetonitrile 1:1, 0.1% formic acid.
From the centrifuged supernatant, two additional 80 μL aliquots were collected and diluted with 160 μL of incubation buffer. One aliquot was stored at 5° C., while the other was stored at 40° C. After 14 or 28 days, the samples were analyzed by LC-UV. Chemical stability was calculated as % loss using the following equations: […]

The test system of another data set is Sprague Dawley rats. Description: Effect on systolic blood pressure, telemetry in Sprague Dawley rats. The class given is in vivo, rat. As to conditions: 0.1 mg/kg SC; for Systolic blood pressure (Mean) % change from baseline, 8 h / Systolic blood pressure (Mean) % change from baseline, 12 h / Systolic blood pressure (Mean) % change from baseline, 24 h: n=2; for Duration of action: last time point with an effect on BP still observed. Here is the method: The effect of the compounds on systolic blood pressure was determined in telemetry studies in Sprague Dawley rats at a dosage of 0.1 mg/kg SC.
The rats were previously implanted with a telemetry device (DSI, Saint-Paul, USA, HD-S10, HD-S11 or HD S21) and allowed to recover for a minimum period of 2 weeks before treatment with vehicle or the different peptides. Blood pressure (BP) was recorded through a catheter inserted into the abdominal aorta. The device body was placed in the abdomen. The animals were allowed to recover from surgery for at least 10 days before the first administration of test drug or vehicle.
The chronically instrumented rats of the telemetry studies were individually housed immediately after surgery and then housed in pairs with a non-instrumented companion after recovery.
Systolic blood pressure was recorded for one hour before treatment (basal period). Thereafter, the subcutaneous administration of the test compound or its vehicle was performed, under continuous recording of the signal up to 48 hours, analysed and expressed as % change from baseline.
Representative data are presented in Table 13 below, in which “Duration of action” indicates the last time point for which an effect on BP was still observed (n=2 animals/peptide)

The next data set concerns the target T1, CFR1R receptor (Homo sapiens, UniProt P34998).
T1 construct: host or cells: CHO-K1 (clone 2)
T1 sequence (P34998 24-415): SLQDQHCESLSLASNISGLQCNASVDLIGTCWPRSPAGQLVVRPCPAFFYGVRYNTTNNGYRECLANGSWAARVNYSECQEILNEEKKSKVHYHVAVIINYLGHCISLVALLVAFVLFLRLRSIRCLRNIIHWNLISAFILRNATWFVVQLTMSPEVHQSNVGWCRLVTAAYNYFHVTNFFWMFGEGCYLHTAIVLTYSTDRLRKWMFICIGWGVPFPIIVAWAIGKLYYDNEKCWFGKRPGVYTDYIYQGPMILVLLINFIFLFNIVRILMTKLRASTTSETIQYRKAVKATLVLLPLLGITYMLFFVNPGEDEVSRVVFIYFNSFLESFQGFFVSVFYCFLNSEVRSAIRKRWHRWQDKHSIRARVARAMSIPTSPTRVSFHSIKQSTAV
The experiment in a line: Activity at anti-target CFR1R receptor, cAMP assay in CRF1R-overexpression CHO-K1 cells. The class given is cell-based. The following applies: 100% = Sauvagine at 100 nM; for EC50: cAMP. Summed up:
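Run as for the TeloHAEC line, except the full-activation control well received Sauvagine (100 nM) and final density was 4000 cells/well. Cells from clone 2 came from frozen aliquots of near-confluent cultures.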

The target in another data set is T2, human CRF2a receptor (Homo sapiens, UniProt Q13324).
T2 construct: expressed in transfected cells; host or cells: TeloHEAC cells
T2 sequence (Q13324 1-411): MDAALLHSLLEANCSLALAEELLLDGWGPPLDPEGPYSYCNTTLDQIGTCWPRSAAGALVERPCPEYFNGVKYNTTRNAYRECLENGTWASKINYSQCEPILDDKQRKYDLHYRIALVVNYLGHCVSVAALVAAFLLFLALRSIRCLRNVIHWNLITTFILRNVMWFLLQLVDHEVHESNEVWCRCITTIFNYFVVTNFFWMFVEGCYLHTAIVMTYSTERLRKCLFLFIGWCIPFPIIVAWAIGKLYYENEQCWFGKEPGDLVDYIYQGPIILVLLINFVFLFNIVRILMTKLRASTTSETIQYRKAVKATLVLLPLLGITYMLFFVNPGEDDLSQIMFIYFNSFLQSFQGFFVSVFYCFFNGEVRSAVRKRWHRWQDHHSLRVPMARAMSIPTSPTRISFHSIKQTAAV
The experiment in a line: Activity at human CRF2a receptor, cAMP functional assay in TeloHEAC cells. It is filed as cell-based. As to conditions: TeloHEAC cells stably expressing human CRF2a receptor, relative to urocortin 2 (100 nM = 100%). Summed up:
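TeloHEAC cells stably expressing human CRF2a (10000 cells/well) were treated with 16-point 1:2 compound dilutions in HBSS/20 mM HEPES with IBMX for 30 min at 37° C. cAMP was read by HTRF (665/620 nm ratio). EC50 was the concentration giving 50% activation, with 100 nM urocortin 2 set as 100%.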

With `CC[C@H](C)[C@H](NC(C)=O)C(=O)N[C@H](C(=O)N[C@@H](CC(C)C)C(=O)N[C@@H](CO)C(=O)N[C@@H](CC(C)C)C(=O)N[C@@H](CC(=O)O)C(=O)N[C@H](C(=O)N1CCC[C@H]1C(=O)N[C@H](C(=O)N[C@@H](CCCCN)C(=O)N[C@@](C)(CC(C)C)C(=O)N[C@@H](CCCCNC(=O)CC[C@H](NC(=O)CCCCCCCCCCCCCCC(=O)O)C(=O)O)C(=O)N[C@@H](CCC(N)=O)C(=O)N[C@H](C(=O)N[C@@H](CC(C)C)C(=O)N[C@@H](CC(C)C)C(=O)N[C@@H](CCCCN)C(=O)N[C@@H](CCC(N)=O)C(=O)N[C@@H](CCC(=O)O)C(=O)N[C@@H](CCCNC(=N)N)C(=O)N[C@@H](CCC(N)=O)C(=O)N[C@@H](CCCCN)C(=O)N[C@@H](CCCCN)C(=O)N[C@@H](CCC(N)=O)C(=O)N[C@@H](CCCNC(=N)N)C(=O)N[C@@H](CCC(=O)O)C(=O)N[C@@H](CCC(N)=O)C(=O)N[C@@H](C)C(=O)N[C@@H](CCC(=O)O)C(=O)N[C@@H](CCCCN)C(=O)N[C@@H](CC(N)=O)C(=O)NC(C)(C)C(=O)N[C@@H](CCC(N)=O)C(=O)N[C@H](C(=O)N[C@@H](CC(C)C)C(=O)N[C@@H](CCC(=O)O)C(=O)N[C@@H](CCC(N)=O)C(=O)N[C@H](C(N)=O)C(C)C)[C@@H](C)CC)[C@@H](C)CC)[C@@H](C)CC)C(C)C)C(C)C` [compound 19] (Ac-IVLSLDVPIK[αMeL]K([γGlu-C16 diacid])QILLKQERQKKQREQAEKN[Aib]QILEQV-NH2), in data set [1], the “Buffer stability pH 4.5 % purity loss” value is 0/0 ^ % and the “Buffer stability pH 7.4 % purity loss” value is recorded as 0/0 ^ %. In the data set with Sprague Dawley rats, the “Systolic blood pressure (Mean) % change from baseline, 8 h” value is −21%; the “Systolic blood pressure (Mean) % change from baseline, 12 h” value came to 0%; the “Systolic blood pressure (Mean) % change from baseline, 24 h” value was found to be 10%; the Duration of action is 11 h. At CFR1R receptor, the “Emax (% I)” value was 6 % I and the half-maximal effective concentration (EC50) (in general, the concentration needed to bring the measured effect to its halfway point) is more than 250 nM. For the same compound, the concentration giving a half-maximal response (EC50) at human CRF2a receptor amounted to 0.28 nM.
For `CC[C@H](C)[C@H](NC(=O)[C@H](CCC(N)=O)NC(=O)[C@H](CCCCN)NC(=O)[C@H](CC(N)=O)NC(=O)[C@@H](NC(=O)[C@H](CCC(=O)O)NC(=O)[C@H](C)NC(=O)[C@H](CCC(N)=O)NC(=O)[C@H](CCC(=O)O)NC(=O)[C@H](CCCNC(=N)N)NC(=O)[C@H](CCC(N)=O)NC(=O)[C@H](CCCCN)NC(=O)[C@H](CCCCN)NC(=O)[C@H](CCC(N)=O)NC(=O)[C@H](CCCCN)NC(=O)[C@H](CCC(=O)O)NC(=O)[C@H](CCC(N)=O)NC(=O)[C@H](CCC(=O)O)NC(=O)[C@H](CC(C)C)NC(=O)[C@H](CC(C)C)NC(=O)[C@@H](NC(=O)[C@H](CCCCN)NC(=O)[C@H](CCCCNC(=O)CC[C@H](NC(=O)CCCCCCCCCCCCCCC(=O)O)C(=O)O)NC(=O)[C@H](CC(C)C)NC(=O)[C@H](CCCCN)NC(=O)[C@@H](NC(=O)[C@@H]1CCCN1C(=O)[C@H](NC(=O)[C@H](CC(=O)O)NC(=O)[C@H](CC(C)C)NC(=O)[C@H](CO)NC(=O)[C@H](CC(C)C)NC(=O)[C@@H](NC(C)=O)C(C)C)C(C)C)[C@@H](C)CC)[C@@H](C)CC)[C@@H](C)O)C(=O)N[C@@H](CC(C)C)C(=O)N[C@@H](C)C(=O)N[C@@H](CCC(N)=O)C(=O)N[C@H](C(N)=O)C(C)C` [compound 33] (Ac-VLSLD[dV]PIKLK([γGlu-C16 diacid])KILLEQEKQKKQREQAETNKQILAQV-NH2), in data set [1], the “Buffer stability pH 4.5 % purity loss” value amounted to 0% and the “Buffer stability pH 7.4 % purity loss” value is given as 18.8%. Further, in the data set with Sprague Dawley rats, the “Systolic blood pressure (Mean) % change from baseline, 8 h” value is given as −22%; the “Systolic blood pressure (Mean) % change from baseline, 12 h” value is −11%; the “Systolic blood pressure (Mean) % change from baseline, 24 h” value amounted to 16%; the Duration of action was 17 h. At CFR1R receptor, the “Emax (% I)” value is on record as 13 % I and the EC50 was more than 250 nM. On human CRF2a receptor, this compound yielded a concentration for a half-maximal effect (EC50) of 0.47 nM.
